Seven compounds from patent US20240300917A1, “MICROBIOCIDAL QUINOLINE/QUINOXALINE ISOQUINOLINE DERIVATIVES” (SYNGENTA CROP PROTECTION AG, priority 2021, published 2024) can be followed below.

In the case of `Cc1ccc2c(c1Cl)[C@@H](C)[C@H](C)N=C2c1cnc2c(F)cccc2c1` (racemic) [E.09, rac-(3S,4R)-5-chloro-1-(8-fluoro-3-quinolyl)-3,4,6-trimethyl-3,4-dihydroisoquinoline], the melting point is 82 to 84 °C.

Turning to `Cc1ccc2c(c1Cl)[C@H](C)[C@H](C)N=C2c1cnc2c(F)cccc2c1` (racemic) [E.14, rac-(3S,4S)-5-chloro-1-(8-fluoro-3-quinolyl)-3,4,6-trimethyl-3,4-dihydroisoquinoline], the melting point fell in the range of 84 to 86 °C.

`Cc1ccc2c(c1C#N)[C@H](C)[C@H](C)N=C2c1cnc2c(F)cccc2c1` (racemic) returned a melting point of 164 to 166 °C.

For the compound `C[C@@H]1N=C(c2cnc3c(F)cccc3c2)c2cccc(Br)c2[C@H]1C` (racemic) [E.12, rac-(3S,4R)-5-bromo-1-(8-fluoro-3-quinolyl)-3,4-dimethyl-3,4-dihydroisoquinoline], the melting point fell in the range of 132 to 134 °C.

With `C[C@@H]1N=C(c2cnc3c(F)cccc3c2)c2cccc(Cl)c2[C@H]1C` (racemic) [E.13, rac-(3S,4R)-5-chloro-1-(8-fluoro-3-quinolyl)-3,4-dimethyl-3,4-dihydroisoquinoline], the melting point was 112 to 114 °C.

Regarding `C[C@@H]1N=C(c2cnc3c(F)cccc3c2)c2cccc(Cl)c2[C@@H]1C` (racemic) [E.15, rac-(3S,4S)-5-chloro-1-(8-fluoro-3-quinolyl)-3,4-dimethyl-3,4-dihydroisoquinoline], the melting point was in the range of 100 to 102 °C.

Take `Cc1ccc2c(c1C#N)[C@H](C)[C@H](C)N=C2c1cnc2c(F)c(F)ccc2c1` (racemic) [E.06, rac-(3S,4S)-1-(7,8-difluoro-3-quinolyl)-3,4,6-trimethyl-3,4-dihydroisoquinoline-5-carbonitrile]: the melting point lay in the range of 140 to 142 °C.

By melting point is commonly meant the temperature, or range, at which the solid turns liquid.
